Here are results for one substance from paper PMC11649784, “Re-design and evaluation of diclofenac-based carborane-substituted prodrugs and their anti-cancer potential” (Scientific Reports, 2024).

Series [1] deals with MC38 cells. In words: MTT viability assay, MC38. The class given is cell-based, murine. The following applies: 72 h, mean±SD; read-out: IC50 [μM] (n = 3) MC38 MTT. As for the experimental part: (§1) In a preliminary test, the stability of all compounds dissolved in the cell medium (c = 100 μM, T = [drawing 47] ) for 72 h was validated by HPLC (see Supporting Information). Cell lines were incubated with the respective compounds in a concentration range of 1.56–100 μM for 72 h, and cell viability was measured using 3-(4,5-dimethylthiazol-2-yl)-2,5-diphenyltetrazolium bromide (MTT) and crystal violet (CV) assays. […] As MTT tests gave inconsistent results, possibly due to interference of the compound with mitochondrial respiration, for the further evaluation only the CV results are considered[97],[98].
The biological study was performed on a murine colon adenocarcinoma cell line (MC38), two human colorectal carcinoma cell lines (HCT116 and HT29), and a human fetal lung fibroblast cell line (MRC-5). All cell lines are commercially available and were obtained from the American Type Culture Collection (ATCC). The human cell lines were kept in HEPES-buffered RPMI-1640 medium supplemented with 10 [drawing 141] heat-inactivated FCS, 2 mM L-glutamine, 0.01 [drawing 142] sodium pyruvate, penicillin (100 units mL^−1), and, streptomycin ( [drawing 143] mL^-1). The MC38 cell line was maintained in DMEM medium additionally supplemented with 1 [drawing 144] non-essential amino acids. Cells were grown at [drawing 145] in a humidified atmosphere with 5 [drawing 146] [drawing 147] . Peritoneal exudate cells (PECs) were isolated from healthy C57BL/6 mice (males, n = 3, 3 months old, weight 22–25 g) by performing an ice-cold PBS peritoneal lavage. Mice were sacrificed by cervical dislocation. Cells were cultivated for 4 h when nonadherent population was removed by washing in PBS, and additionally cultivated overnight in HEPES-buffered RPMI-1640 medium supplemented with 5 [drawing 148] heat-inactivated FCS before treatment with experimental drugs. Animal handling and protocol for isolation of PECs were performed according to European Union rules, and the ARRIVE guidelines 2.0.
For the viability tests, MC38, HCT116, and HT29 cells were seeded in 96-well plates at a density of 2 [drawing 149] 103, 5 [drawing 150] 103, and 6 [drawing 151] 10^3 cells/well, respectively. To determine whether the drug affected the viability of healthy, non-malignant cells, MRC-5 and PECs were seeded in 96-well plates at a density of 8 [drawing 152] 103 and 2 [drawing 153] 10^5 cells/well, respectively. For the flow cytometric analyses, MC38 cells were seeded in 6-well plates at 5 [drawing 154] 10^4 cells/well. For morphological assessment of nuclei and the detection of autophagy, MC38 cells were seeded in 2-well chamber slides at 1.5 [drawing 155] 10^4 cells/well.
After 72 h, cell viability was determined using MTT and CV tests. First, the supernatant from the wells was discarded and the cells were incubated with an MTT solution (0.5 mg mL^−1). After half an hour, the purple formazan crystals formed were dissolved in DMSO. For CV staining of the cells, the cells were fixed with 4 [drawing 157] PFA for 10 min and then stained with a 0.02 [drawing 158] CV solution for 15 min, all at room temperature (RT). The cells were then washed with tap water, air-dried and the dye was dissolved in 33 [drawing 159] acetic acid. For both viability tests, the absorbance of the developed colors was measured using an automated microplate reader at 570 nm with a reference wavelength of 670 nm. The results were expressed as a percentage of the control values of the untreated cells, which were arbitrarily set at 100 [drawing 160] . IC50 values, defined as 50 [drawing 161] inhibitory concentration, were calculated using a four-parameter logistic function and presented as mean±SD. All biological experiments were performed in triplicates. To evaluate the nature of the detected autophagy, a combined treatment with compound 3 and the autophagy inhibitors chloroquine (Chlq) and 3-methyladenine (3-MA) was carried out. […] After 72 h, cell viability was determined by CV assay.
(In general: Formazan colour is commonly taken as a measure of viable cells.)

For series [2], the system named is MC38 cells. Kind of series: DHR 123 ROS/RNS production, flow cytometry. The class given is cell-based, murine. The following applies: IC50 concentration, 72 h. As for the experimental part:
For all flow cytometric analyses, MC38 cells were seeded overnight and then treated with the IC50 concentration of compound 3 for 72 h. The cells were harvested, washed, and stained according to the manufacturer’s instructions for each method. To determine whether the compound induces apoptosis, cells were double stained with AnnV-FITC and PI (15 μg mL^–1) for 15 min at RT in the dark. To detect caspase activity, cells were stained with the FITC-conjugated caspase inhibitor ApoStat for 30 min at [drawing 162] . To detect cell proliferation, MC38 cells were stained with CFSE (1 μM) for 10 min at [drawing 163] prior to seeding and then treated as previously described. To detect intracellular production of Reactive oxygen/nitrogen Species (ROS/RNS), MC38 cells were prestained with DHR 123 (1 [drawing 164] M) for 20 min at [drawing 165] , then seeded and exposed to an IC50 concentration of compound 3. After 72 h incubation, all samples were washed, resuspended in PBS and fluorescence intensity was analyzed using a CytoFLEX [drawing 166] flow cytometer (Beckman Coulter, Pasadena, CA, USA), while the data obtained was evaluated using the [drawing 167] software program.
Background: Flow cytometry measures light scatter and fluorescence of single cells or particles in a stream.

The nature of series [3]: Stability in cell culture medium by HPLC. In kind it is physicochemical. As for the experimental part:
as §1
Selg et al. Supp. Information
2 Stability Tests for Compound 3
In a 1 mL Eppendorf vial, 10 μL (0.05 μmol) of a freshly prepared 5 mM stock solution of compound 3 in DMSO was mixed with 490 μL of DMEM (Dulbecco's Modified Eagle Medium) containing 10% of fetal bovine serum and stored in an incubation oven at 40 °C for a total 72 hours. After 0, 24 and 72 hours, a 50 μL sample was collected from the mixture and diluted with 250 μL acetonitrile in a 500 μL Eppendorf vial to precipitate the proteins. The mixture was vortexed for 30 s before it was centrifuged for 20 min at 15,000 min-1 and 4 °C. […]
Figure S 2. […] Samples measured at 0, 24 and 72 hours (top to bottom) including the mass spectrum (right) and integration data (bottom). […]

In general, IC50 refers to the concentration needed to halve the response being measured. As for “1-[2-(7,8-dicarba-nido-undecaborate)]- [drawing 126] H-indolium-2-amine [compound 3]”, the IC50 in the series with MC38 cells [1] was 7.9 ± 0.2 µM. Also, the “production of ROS/RNS (DHR 123)” value with MC38 cells [2] is listed as “strongly depleted”. Moreover, the “stability in cell medium by HPLC” value in series [3] (100 μM, 72 h, compound 3: DMEM with 10% fetal bovine serum, 40 °C, 0, 24 and 72 hours) is given as “no signs of decomposition”. In addition, in series [3] (DMEM with 10% fetal bovine serum, 40 °C, 72 hours), the “purity (relative area of integrals) after 72 hours in culture medium” value was “above 95%”.
